Test results from patent EP0931078B1, “NOVEL TRICYCLIC PIPERIDINYL COMPOUNDS USEFUL AS INHIBITORS OF FARNESYL-PROTEIN TRANSFERASE” (SCHERING CORPORATION, priority 1996, dated 1998).
Where two headings read alike, the source gives them in different places. Each block holds one molecule with its values, some of them ahead of it.

Biological target: T1, partially purified rat brain famesyl protein transferase (FPT) (Rattus norvegicus, UniProt Q02293+Q04631)
T1 construct: partially purified rat brain famesyl protein transferase (FPT); from tissue; host or cells: rat brain
Assay: In vitro enzyme assay: inhibition of Ras-CVLS farnesylation by farnesyl protein transferase (FPT)
Type: biochemical
Procedure: • 1. In vitro enzyme assays: FPT IC50 (inhibition of famesyl protein transferase, in vitro enzyme assay) are determined by the methods disclosed in […] or WO 95/10516. […] Cell-based assay. COS IC50 values refer to the COS cells activity inhibition of Ras processing, are determined by the methods disclosed in […] or WO 95/10516.

[1] = unit printed as uM (Examples 49-54)

T1 sequence (Q02293 whole entry, one chain of several): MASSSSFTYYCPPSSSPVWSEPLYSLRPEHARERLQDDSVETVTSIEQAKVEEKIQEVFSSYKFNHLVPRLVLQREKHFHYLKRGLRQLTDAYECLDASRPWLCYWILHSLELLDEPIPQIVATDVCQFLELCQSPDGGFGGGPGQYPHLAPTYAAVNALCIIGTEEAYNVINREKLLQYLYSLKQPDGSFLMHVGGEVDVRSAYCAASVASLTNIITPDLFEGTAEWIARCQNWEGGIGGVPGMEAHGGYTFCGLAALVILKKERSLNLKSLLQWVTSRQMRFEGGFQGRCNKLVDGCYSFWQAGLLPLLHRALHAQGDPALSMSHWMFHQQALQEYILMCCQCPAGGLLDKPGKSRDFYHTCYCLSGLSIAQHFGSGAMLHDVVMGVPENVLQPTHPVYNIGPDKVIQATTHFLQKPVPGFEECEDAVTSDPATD

SMILES: O=C(NC1CCNCC1)C1CCN(C2c3ccc(Cl)cc3CCc3cc(Br)cnc32)CC1 (centres unmarked) [Example 7 Step B, 1-(3-Bromo-8-chloro-6,11-dihydro-5H-benzo[5,6]cyclohepta[1,2-b]pyridin-11-yl)-N-(4-piperidinyl)-4-piperidinecarboxamide]
inhibition at 0.39 µM (read-out: FPT Inhibition): 8.75%

SMILES: O=C(NCC1CCNCC1)C1CCN(C2c3ccc(Cl)cc3CCc3cc(Br)cnc32)CC1 (centres unmarked) [Example 8 Step B, 1-(3-Bromo-8-chloro-6,11-dihydro-5H-benzo[5,6]cyclohepta[1,2-b]pyridin-11-yl)-N-(4-piperidinylmethyl)-4-piperidinecarboxamide]
inhibition at 0.38 µM (read-out: FPT Inhibition): 12%

SMILES: O=C(NCc1cccnc1)C1CCCN(C2c3ccc(Cl)cc3CCc3cc(Br)cnc32)C1 (centres unmarked) [Example 10, 1-(8-chloro-3-bromo-5,6-dihydro-11H-benzo[5,6]-cyclohepta[1,2-b]pyridin-11-yl)piperidine-3-(N-3-pyridylmethylamino)carboxamide]
IC50: 0.21 µM

SMILES: O=C(NCc1cccnc1)C1CCCN(C2c3ncc(Br)cc3CCc3cc(Cl)cc(Br)c32)C1 (centres unmarked) [Example 16, 1-(3,10-Dibromo-8-chloro-6,11-dihydro-5H-benzo[5,6]cyclohepta[1,2-b]pyridin-11-yl)-N-(3-pyridinylmethyl)-3-piperidinecarboxamide]
IC50: 0.027 µM

SMILES: O=C(CC1CCCN(C2c3ccc(Cl)cc3CCc3cc(Br)cnc32)C1)NCc1cccnc1 (centres unmarked) [Example 18, 1-(3-Bromo-8-chloro-6,11-dihydro-5H-benzo[5,6]cyclohepta[1,2-b]pyridin-11-yl)-N-(3-pyridinylmethyl)-3-piperidineacetamide]
inhibition at 1.1 µM (read-out: FPT Inhibition): 9%

SMILES: O=C(CC1CCCN(C2c3ccc(Cl)cc3CCc3cc(Br)cnc32)C1)Nc1cccnc1 (centres unmarked) [Example 19, 1-(3-Bromo-8-chloro-6,11-dihydro-5H-benzo[5,6]cyclohepta[1,2-b]pyridin-11-yl)-N-(3-pyridinyl)-3-piperidineacetamide]
inhibition at 1.1 µM (read-out: FPT Inhibition): 15%

SMILES: O=C(CC1CCN(C2c3ccc(Cl)cc3CCc3cc(Br)cnc32)CC1)NCc1cccnc1 (centres unmarked) [Example 43, 1-(3-Bromo-8-chloro-6,11-dihydro-5H-benzo[5,6]cyclohepta[1,2-b]pyridin-11-yl)-N-(3-pyridylmethyl)-4-piperidineacetamide]
inhibition at 0.22 µM (read-out: FPT INH): 43%

SMILES: O=C(CCC1CCN(C2c3ccc(Cl)cc3CCc3cc(Br)cnc32)CC1)NCc1cccnc1 (centres unmarked) [Example 44, 1-(3-Bromo-8-chloro-6,11-dihydro-5H-benzo[5,6]cyclohepta[1,2-b]pyridin-11-yl)-N-(3-pyridylmethyl)-4-piperidinepropanamide]
inhibition at 0.35 µM (read-out: FPT INH): 39%

Next, values leading:

IC50: 0.66 µM
SMILES: NC(=O)NCC1CCN(C(=O)C2CCN(C3c4ccc(Cl)cc4CCc4cc(Br)cnc43)CC2)CC1 (centres unmarked) [Example 9, 1-[1-(3-Bromo-8-chloro-6,11-dihydro-5H-benzo[5,6]cyclohepta[1,2-b]pyridin-11-yl)-4-piperidinylcarbonyl]-4-[(1-aminomethanamido)methyl]piperidine]

IC50: 0.065 µM
SMILES: O=C(Nc1cccnc1)C1CCCN(C2c3ccc(Cl)cc3CCc3cc(Br)cnc32)C1 (centres unmarked) [Example 11, 1-(3-bromo-8-chloro-6,11-dihydro-5H-benzo[5,6]cyclohepta [1,2-b]pyridin-11-yl)-N-(3-pyridinyl)-3-piperidinecarboxamide]

IC50: 0.042 µM
SMILES: O=C(CC1CCN(C2c3ncc(Br)cc3CCc3cc(Cl)cc(Br)c32)CC1)NCc1cccnc1 (centres unmarked) [Example 45, 1-(8-Chloro-3,10-dibromo-6,11-dihydro-5H-benzo[5,6]cycloheptal[1,2-b]pyridin-11-yl)-N-(3-pyridylmethyl)-4-piperidineacetamide]

IC50 [1]: 0.58 µM
SMILES: O=C(NC1CC1)[C@@H]1CCCN(C2c3ncc(Br)cc3CCc3cc(Cl)cc(Br)c32)C1 (some centres unmarked) [Example 49, N-cyclopropyl-1-(3,10-dibromo-8-chloro-6,11-dihydro-5H-benzo[5,6]cyclohepta[1,2-b]pyridin-11-yl)-3-piperidinecarboxamide]

IC50 [1]: 0.96 µM
SMILES: CNC(=O)[C@@H]1CCCN(C2c3ncc(Br)cc3CCc3cc(Cl)cc(Br)c32)C1 (some centres unmarked) [Example 50, 1-(3,10-Dibromo-8-chloro-6,11-dihydro-5H-benzo[5,6]cyclohepta[1,2-b]pyridin-11-yl)-N-methyl-3-piperidinecarboxamide]

IC50 [1]: 0.081 µM
SMILES: O=C(NCCc1cccnc1)[C@@H]1CCCN(C2c3ncc(Br)cc3CCc3cc(Cl)cc(Br)c32)C1 (some centres unmarked) [Example 52, 1-(3,10-Dibrorno-8-chforo-6,11-dihydro-5H-benzo[5,6]cyclohepta[1,2-b]pyridin-11-yl)-N-[2-(3-pyridinyl)ethyl]-3-piperidinecarboxamide]

IC50 [1]: 0.11 µM
SMILES: CN(C)CC(=O)N1CCC(CNC(=O)[C@@H]2CCCN(C3c4ncc(Br)cc4CCc4cc(Cl)cc(Br)c43)C2)CC1 (some centres unmarked) [Example 53, 1-(3,10-Dibromo-8-chloro-6,11-dihydro-5H-benzo[5,6]cyclohepta[1,2-b]pyridin-11-yl)-N-[[1-[(dimethylamino)acetyl]-4-piperidinyl]methyl]-3-piperidinecarboxamide]

IC50 [1]: 0.1 µM
SMILES: O=C(NCCCN1CCCC1=O)C1CCCN(C2c3ncc(Br)cc3CCc3cc(Cl)cc(Br)c32)C1 (centres unmarked) [Example 54, 1-(3,10-Dibromo-8-chloro-6,11-dihydro-5H-benzo[5,6]cyclohepta[1,2-b]pyridin-11-yl)-N-[3-(2-oxo-1-pyrrolidinyl)propyl]-3-piperidinecarboxamide]

IC50: 0.3 µM
SMILES: O=C(NCc1cccnc1)C1CCCCN1C1c2ncc(Br)cc2CCc2cc(Cl)cc(Br)c21 (stereo not drawn) [Isomer C3 amide]
